By IC50 is commonly meant the concentration that gives 50% inhibition.

This note sets out measurements from US10065972B2, “Bicyclic or tricyclic heterocyclic compound” (MITSUBISHI TANABE PHARMA CORPORATION, priority 2014, dated 2018).

human recombinant KAT-II, sequence (Q8N5Z0 30-425): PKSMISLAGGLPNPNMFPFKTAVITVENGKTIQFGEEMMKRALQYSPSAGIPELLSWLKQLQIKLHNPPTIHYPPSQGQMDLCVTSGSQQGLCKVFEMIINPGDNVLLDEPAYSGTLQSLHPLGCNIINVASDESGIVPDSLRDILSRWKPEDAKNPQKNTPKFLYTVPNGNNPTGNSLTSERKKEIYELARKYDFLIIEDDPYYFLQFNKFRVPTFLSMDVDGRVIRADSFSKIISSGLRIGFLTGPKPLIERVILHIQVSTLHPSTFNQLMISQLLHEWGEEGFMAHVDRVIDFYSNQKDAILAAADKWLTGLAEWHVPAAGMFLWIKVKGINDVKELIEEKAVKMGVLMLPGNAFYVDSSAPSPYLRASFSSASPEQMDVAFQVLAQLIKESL

The target in this test is human recombinant KAT-II (Homo sapiens (Human), UniProt Q8N5Z0). The experiment in a line: KAT-II inhibitory test. In kind it is biochemical. As to conditions: 3.0 μmol/L kynurenine, 37° C., 1 hr, pH 8.0; kynurenic acid quantified by HPLC. The method, then:
The compounds described in the above-mentioned Examples were used for the KAT-II inhibitory test.
Preparation of Human Recombinant KAT-II
Human recombinant KAT-II was prepared as follows.
His tag and maltose binding protein tag were added to the N-terminal of a gene encoding human KAT-II (Genbank accession number: AF481738.1), and the obtained gene was incorporated into pET32 (Merck Nihon Millipore), which is an Escherichia coli expression vector. Human recombinant KAT-II produced by BL21(DE3) Escherichia coli (Merck Nihon Millipore, 69450) transformed using the plasmid was purified using an amylose resin column (New England Biolabs, #800-21 L).
The inhibitory action of the test compound on human recombinant KAT-II was determined by the following method.
To a reaction mixture (45 μL) containing 3.0 μmol/L kynurenine, 10 μmol/L pyridoxal phosphate, 2.0 ng/μL human recombinant KAT-II, and 150 mmol/L tris(hydroxymethyl)aminomethane-acetate buffer (pH 8.0) was added a 10% dimethyl sulfoxide solution (5 μL) of each test compound prepared, and the mixture was reacted at 37° C. for 1 hr. After the reaction, 50% trichloroacetic acid (5 μL) was added to terminate the reaction.
The resultant kynurenic acid was quantified as follows by high performance liquid chromatography. An enzyme reaction mixture was separated by an octadecylsilane reversed-phase column (SC-50DS, Eicom Corporation; mobile phase: 250 mmol/L zinc acetate, 50 mmol/L sodium acetate, and 5.0% acetonitrile (pH 6.2)) incubated at 30° C., and kynurenic acid was quantified using a fluorescence detector (RF-20Axs, Shimadzu Corporation) at excitation wavelength 354 nm, detection wavelength 460 nm. The analytical curve was drawn every time by an external standard method. Each test compound was tested by dual measurement at each concentration.
In the case of `CC(C)c1cc(=O)n2nc([C@H]3CCCN3C(=O)N3CCc4ccccc43)sc2n1` [Example 170, 2-[(R)-1-(2,3-dihydro-indole-1-carbonyl)pyrrolidin-2-yl]-7-(propan-2-yl)-5H-[1,3,4]thiadiazolo[3,2-a]pyrimidin-5-one], the IC50 is 880 nM.

Take `Cc1nc2sc([C@H]3CCCN3C(=O)N[C@H](C)c3ccccc3)nn2c(=O)c1C` [Example 171, (R)-2-(6,7-dimethyl-5-oxo-5H-[1,3,4]thiadiazolo[3,2-a]pyrimidin-2-yl)-N-((R)-1-phenylethyl)pyrrolidine-1-carboxamide]: the IC50 was found to be 1800 nM.

Turning to `Cc1nc2sc([C@H]3CCCN3C(=O)NC(C)(C)c3ccccc3)nn2c(=O)c1C` [Example 172, (R)-2-(6,7-dimethyl-5-oxo-5H-[1,3,4]thiadiazolo[3,2-a]pyrimidin-2-yl)-N-(1-methyl-1-phenylethyl)pyrrolidine-1-carboxamide], the IC50 came out at 840 nM. With `Cc1nc2sc([C@H]3CCCN3C(=O)Nc3csc4ncccc34)nn2c(=O)c1C` [Example 175, (R)-2-(6,7-dimethyl-5-oxo-5H-[1,3,4]thiadiazolo[3,2-a]pyrimidin-2-yl)-N-(thieno[2,3-b]pyridin-3-yl)-pyrrolidine-1-carboxamide] the figure was 3700 nM.

With `CCCc1cc(=O)n2nc(N3CCCN3C(=O)Oc3ccccc3)sc2n1` [Example 176, 2-(5-oxo-7-propyl-5H-[1,3,4]thiadiazolo[3,2-a]pyrimidin-2-yl)pyrazolidine-1-carboxylic acid phenyl ester], the IC50 turned out to be 520 nM.

As to `CCc1nc2sc(N3CCC[C@@H]3C(=O)NCc3cccc(F)c3)nc2c(=O)n1C` [Example 183, (R)-1-(5-ethyl-6-methyl-7-oxo-6,7-dihydro-[1,3]thiazolo[5,4-d]pyrimidin-2-yl)-N-(3-fluorobenzyl)pyrrolidine-2-carboxamide], the IC50 is 32 nM. In the case of `Cn1c(C(F)(F)F)nc2sc(N3CCC[C@@H]3C(=O)NCc3ccccc3)nc2c1=O` [Example 190, (R)-N-benzyl-1-(6-methyl-7-oxo-5-trifluoromethyl-6,7-dihydro-[1,3]thiazolo[5,4-d]pyrimidin-2-yl)pyrrolidine-2-carboxamide], the IC50 came out at 26 nM.

For the compound `COCCn1c(C(F)F)nc2sc(N3CCC[C@@H]3C(=O)NCc3ccccc3)nc2c1=O` [Example 191, (R)-N-benzyl-1-[5-difluoromethyl-6-(2-methoxy-ethyl)-7-oxo-6,7-dihydro-[1,3]thiazolo[5,4-d]pyrimidin-2-yl]pyrrolidine-2-carboxamide], the IC50 was 31 nM. With `Cn1c(-c2ccccn2)nc2sc(N3CCC[C@@H]3C(=O)NCc3ccccc3)nc2c1=O` [Example 194, (R)-N-benzyl-1-[6-methyl-7-oxo-5-(pyridin-2-yl)-6,7-dihydro-[1,3]thiazolo[5,4-d]pyrimidin-2-yl]pyrrolidine-2-carboxamide] the figure was 76 nM; with `Cn1c(-c2c(F)cc(F)cc2F)nc2sc(N3CCC[C@@H]3C(=O)NCc3ccccc3)nc2c1=O` [Example 203, (R)-N-benzyl-1-[6-methyl-7-oxo-5-(2,4,6-trifluorophenyl)-6,7-dihydro[1,3]thiazolo[5,4-d]pyrimidin-2-yl]pyrrolidine-2-carboxamide], 14 nM. Consider `Cn1c(-c2c(F)cccc2F)nc2sc(N3CCC[C@@H]3C(=O)NCc3ccccc3)nc2c1=O` [Example 204, (R)-N-benzyl-1-[5-(2,6-difluorophenyl)-6-methyl-7-oxo-6,7-dihydro[1,3]thiazolo[5,4-d]pyrimidin-2-yl]pyrrolidine-2-carboxamide], for which the IC50 was found to be 7 nM. As to `Cc1noc(-c2nc3sc(N4CCC[C@@H]4C(=O)NCc4ccccc4)nc3c(=O)n2C)n1` [Example 211, (R)-N-benzyl-1-[6-methyl-5-(3-methyl-1,2,4-oxadiazol-5-yl)-7-oxo-6,7-dihydro[1,3]thiazolo[5,4-d]pyrimidin-2-yl]pyrrolidine-2-carboxamide], the IC50 was 7.3 nM. Turning to `Cc1noc(-c2nc3sc(N4CCC[C@@H]4C(=O)NCc4ccc(F)cc4)nc3c(=O)n2C)n1` [Example 213, (R)-N-(4-fluorobenzyl)-1-[6-methyl-5-(3-methyl-[1,2,4]oxadiazol-5-yl)-7-oxo-6,7-dihydro[1,3]thiazolo[5,4-d]pyrimidin-2-yl]pyrrolidine-2-carboxamide], the IC50 stood at 16 nM.

As for `Cc1noc(-c2nc3sc(N4CCC[C@@H]4C(=O)NCc4ccccc4)nc3c(=O)n2CC(F)F)n1` [Example 221, (R)-N-benzyl-1-[6-(2,2-difluoroethyl)-5-(3-methyl-1,2,4-oxadiazol-5-yl)-7-oxo-6,7-dihydro[1,3]thiazolo[5,4-d]pyrimidin-2-yl]pyrrolidine-2-carboxamide], the IC50 worked out at 4.8 nM. `CC1(Cn2c(C(F)(F)F)nc3sc(N4CCC[C@@H]4C(=O)NCc4ccccc4)nc3c2=O)COC1` [Example 227, (R)-N-benzyl-1-{6-[(3-methyloxetan-3-yl)methyl]-7-oxo-5-trifluoromethyl-6,7-dihydro[1,3]thiazolo[5,4-d]pyrimidin-2-yl}pyrrolidine-2-carboxamide]: the IC50 is 72 nM.

In the case of `Cc1ccccc1CNC(=O)[C@H]1CCCN1c1nc2c(=O)n(C)c(C)nc2s1` [Example 229, (R)-1-(5,6-dimethyl-7-oxo-6,7-dihydro-[1,3]thiazolo[5,4-d]pyrimidin-2-yl)-N-(2-methylbenzyl)pyrrolidine-2-carboxamide], the IC50 turned out to be 21 nM. With `CCc1nc2sc(N3CC[C@@H]3C(=O)NCc3ccccc3)nc2c(=O)n1C` [Example 233, (R)-N-benzyl-1-(5-ethyl-6-methyl-7-oxo-6,7-dihydro-[1,3]thiazolo[5,4-d]pyrimidin-2-yl)azetidine-2-carboxamide], the IC50 worked out at 120 nM. In the case of `CCc1nc2sc(N3CCCC[C@@H]3C(=O)NCc3ccccc3)nc2c(=O)n1CC` [Example 236, (R)-N-benzyl-1-(5,6-diethyl-7-oxo-6,7-dihydro-[1,3]thiazolo[5,4-d]pyrimidin-2-yl)piperidine-2-carboxamide] it was 240 nM; in that of `O=C(NCc1ccccc1)[C@H]1CCCN1c1nc2c(=O)n(C3CCCC3)cnc2s1` [Example 238, (R)-N-benzyl-1-(6-cyclopentyl-7-oxo-6,7-dihydro-[1,3]thiazolo[5,4-d]pyrimidin-2-yl)pyrrolidine-2-carboxamide], 16 nM; in that of `O=C(NCc1ccccc1)[C@H]1CCCN1c1nc2c(=O)n(C3CCOCC3)c(C(F)(F)F)nc2s1` [Example 244, (R)-N-benzyl-1-[7-oxo-6-(tetrahydro-2H-pyran-4-yl)-5-trifluoromethyl-6,7-dihydro-[1,3]thiazolo[5,4-d]pyrimidin-2-yl]pyrrolidine-2-carboxamide], 11 nM.

Regarding `O=C(NCc1ccccc1)[C@H]1CCCN1c1nc2c(=O)n(C3COC3)c(C(F)(F)F)nc2s1` [Example 251, (R)-N-benzyl-1-[6-(oxetan-3-yl)-7-oxo-5-trifluoromethyl-6,7-dihydro-[1,3]thiazolo[5,4-d]pyrimidin-2-yl]pyrrolidine-2-carboxamide], the IC50 came to 40 nM.

Turning to `O=C(NCc1ccccc1)[C@H]1CCCN1c1nc2c(=O)n(N3CCCC3)c(C(F)(F)F)nc2s1` [Example 252, (R)-N-benzyl-1-[7-oxo-6-(pyrrolidin-1-yl)-5-trifluoromethyl-6,7-dihydro-[1,3]thiazolo[5,4-d]pyrimidin-2-yl]pyrrolidine-2-carboxamide], the IC50 was found to be 19 nM. With `O=C(NCc1ccccc1)[C@H]1CCCN1c1nc2c(=O)n(N3CCOCC3)c(C(F)(F)F)nc2s1` [Example 253, (R)-N-benzyl-1-[6-(morpholin-4-yl)-7-oxo-5-trifluoromethyl-6,7-dihydro-[1,3]thiazolo[5,4-d]pyrimidin-2-yl]pyrrolidine-2-carboxamide] the figure was 89 nM; with `O=C(NCc1ccccc1)[C@H]1CCCN1c1nc2c(=O)n(CC3CCOCC3)c(C(F)F)nc2s1` [Example 254, (R)-N-benzyl-1-{5-difluoromethyl-7-oxo-6-[(tetrahydro-2H-pyran-4-yl)methyl]-6,7-dihydro-[1,3]thiazolo[5,4-d]pyrimidin-2-yl}pyrrolidine-2-carboxamide], 11 nM. In the case of `COCc1nc2sc(N3CCC[C@@H]3C(=O)NCc3ccccc3)nc2c(=O)n1C1CC1` [Example 258, (R)-N-benzyl-1-[6-cyclopropyl-5-methoxymethyl-7-oxo-6,7-dihydro[1,3]thiazolo[5,4-d]pyrimidin-2-yl]pyrrolidine-2-carboxamide] it was 180 nM; in that of `Cn1c(C2CCOCC2)nc2sc(N3CCC[C@@H]3C(=O)NCc3ccccc3)nc2c1=O` [Example 259, (R)-N-benzyl-1-[6-methyl-7-oxo-5-(tetrahydro-2H-pyran-4-yl)-6,7-dihydro[1,3]thiazolo[5,4-d]pyrimidin-2-yl]pyrrolidine-2-carboxamide], 4.3 nM.
